Patent US20250276924A1, “CHEMICAL AND BIOLOGICAL DEGRADATION OF ETHER PER- AND POLYFLUOROALKYL SUBSTANCES” (The Regents of the University of California, priority 2024, published 2025)

Experiment: Chemical treatment by UV (254 nm)/sulfite advanced reduction at pH 9.5
Type: physicochemical
Experimental: The chemical treatment of five non-biodegradable PFAS was conducted in 600 mL closed-system batch reactors equipped with a low-pressure mercury lamp (254 nm, 18 W) at 20° C. The reaction mixture contained 25 μM ether PFAS, 10 mM Na2SO3, and 5 mM NaHCO3 at pH 9.5 adjusted by NaOH. […]

Compound | defluorination by chemical reductive degradation (UV 254 nm, SO3^2− 10 mM, pH 9.5, after 48 h) | degradation by UV/sulfite treatment (second advanced reduction treatment, result in words)
O=C(O)C(F)(OC(F)(F)C(F)(F)C(F)(F)F)C(F)(F)F (centres unmarked) [E10, 2,3,3,3-tetrafluoro-2-(perfluoropropoxy)propanoic acid] | less than 50% | 
Trifluoroacetic acid [TP112] |  | quickly and completely degraded
